Data reported in PMC8788362, “Rational design and synthesis of 2-(1H-indazol-6-yl)-1H-benzo[d]imidazole derivatives as inhibitors targeting FMS-like tyrosine kinase 3 (FLT3) and its mutants” (Journal of Enzyme Inhibition and Medicinal Chemistry, 2022).
Where two headings read alike, the source gives them in different places.

What was measured:
TRKC = biological target: T1, TRKC (Homo sapiens, UniProt Q16288); test: Reaction Biology Kinase HotSpot kinase assay; type: biochemical
T1 construct: purchased Reaction Biology Corp. (Kinase HotSpot service)
Description: (§1) (specific activity approx. 500 cpm/pmol, concentration as required).

c-Kit = biological target: T2, c-Kit (Homo sapiens, UniProt P10721); test: Reaction Biology Kinase HotSpot kinase assay; type: biochemical
T2 construct: purchased Reaction Biology Corp. (Kinase HotSpot service)
Description: as §1

ABL1 = biological target: T3, ABL1 (Homo sapiens, UniProt P00519); test: Reaction Biology Kinase HotSpot kinase assay; type: biochemical
T3 construct: purchased Reaction Biology Corp. (Kinase HotSpot service)
Description: as §1

CAMKK1 = biological target: T4, CAMKK1 (Homo sapiens, UniProt Q8N5S9); test: Reaction Biology Kinase HotSpot kinase assay; type: biochemical
T4 construct: purchased Reaction Biology Corp. (Kinase HotSpot service)
Description: as §1

AKT1 = biological target: T5, AKT1 (Homo sapiens, UniProt P31749); test: Kinase HotSpot kinase profiling; type: biochemical; details: read-out: % Inhibition AKT1
T5 construct: purchased Reaction Biology Corp. (Kinase HotSpot service)
Description: as §1

BTK = biological target: T6, BTK (Homo sapiens, UniProt Q06187); test: Kinase HotSpot kinase profiling; type: biochemical; details: read-out: % Inhibition BTK
T6 construct: purchased Reaction Biology Corp. (Kinase HotSpot service)
Description: as §1

ALK = biological target: T7, ALK (Homo sapiens, UniProt Q9UM73); test: Kinase HotSpot kinase profiling; type: biochemical; details: read-out: % Inhibition ALK
T7 construct: purchased Reaction Biology Corp. (Kinase HotSpot service)
Description: as §1

c-MER = biological target: T8, c-MER (Homo sapiens, UniProt Q12866); test: Kinase HotSpot kinase profiling; type: biochemical; details: read-out: % Inhibition c-MER
T8 construct: purchased Reaction Biology Corp. (Kinase HotSpot service)
Description: as §1

ERK1 = biological target: T9, ERK1 (Homo sapiens, UniProt P27361); test: Kinase HotSpot kinase profiling; type: biochemical; details: read-out: % Inhibition ERK1
T9 construct: purchased Reaction Biology Corp. (Kinase HotSpot service)
Description: as §1

FYN = biological target: T10, FYN (Homo sapiens, UniProt P06241); test: Kinase HotSpot kinase profiling; type: biochemical
T10 construct: purchased Reaction Biology Corp. (Kinase HotSpot service)
Description: as §1

FMS = biological target: T11, FMS (Homo sapiens, UniProt P07333); test: Kinase HotSpot kinase profiling; type: biochemical; details: read-out: % Inhibition FMS
T11 construct: purchased Reaction Biology Corp. (Kinase HotSpot service)
Description: as §1

FGFR3 = biological target: T12, FGFR3 (Homo sapiens, UniProt P22607); test: Kinase HotSpot kinase profiling; type: biochemical; details: read-out: % Inhibition FGFR3
T12 construct: purchased Reaction Biology Corp. (Kinase HotSpot service)
Description: as §1

c-Src = biological target: T13, c-Src (Homo sapiens, UniProt P12931); test: Kinase HotSpot kinase profiling; type: biochemical; details: read-out: % Inhibition c-Src
T13 construct: purchased Reaction Biology Corp. (Kinase HotSpot service)
Description: as §1

AXL = biological target: T14, AXL (Homo sapiens, UniProt P30530); test: Kinase HotSpot kinase profiling; type: biochemical; details: read-out: % Inhibition AXL
T14 construct: purchased Reaction Biology Corp. (Kinase HotSpot service)
Description: as §1

Aurora A = biological target: T15, Aurora A (Homo sapiens, UniProt O14965); test: Kinase HotSpot kinase profiling; type: biochemical; details: read-out: % Inhibition Aurora A
T15 construct: purchased Reaction Biology Corp. (Kinase HotSpot service)
Description: as §1

EGFR = biological target: T16, EGFR (Homo sapiens, UniProt P00533); test: Kinase HotSpot kinase profiling; type: biochemical; details: read-out: % Inhibition EGFR
T16 construct: purchased Reaction Biology Corp. (Kinase HotSpot service)
Description: as §1

BRAF (V599E) = biological target: T17, BRAF (V599E) (Homo sapiens, UniProt P15056, V600E); test: Kinase HotSpot kinase profiling; type: biochemical
T17 construct: purchased Reaction Biology Corp. (Kinase HotSpot service)
Description: as §1

AXL (R499C) = biological target: T18, AXL (R499C) (Homo sapiens, UniProt P30530, R499C); test: Kinase HotSpot kinase profiling; type: biochemical; details: read-out: % Inhibition AXL (R499C)
T18 construct: purchased Reaction Biology Corp. (Kinase HotSpot service)
Description: as §1

c-MET = biological target: T19, c-MET (Homo sapiens, UniProt P08581); test: Kinase HotSpot kinase profiling; type: biochemical; details: read-out: % Inhibition c-MET
T19 construct: purchased Reaction Biology Corp. (Kinase HotSpot service)
Description: as §1

FLT3-ITD = FLT3-ITD (Homo sapiens, UniProt P36888, ITD); test: Kinase HotSpot kinase profiling; type: biochemical
Description: as §1

FLT3 (R595_E596 ins EY) = biological target: T20, FLT3 (R595_E596 ins EY) (Homo sapiens, UniProt P36888, INS595EY); test: Reaction Biology Kinase HotSpot radiometric kinase assay; type: biochemical
T20 construct: purchased Reaction Biology Corp. (Kinase HotSpot service)
Description: as §1

FLT3 (F594_R595 ins R) = biological target: T21, FLT3 (F594_R595 ins R) (Homo sapiens, UniProt P36888, INS594R); test: as above; type: biochemical
T21 construct: purchased Reaction Biology Corp. (Kinase HotSpot service)
Description: as §1

[1] = biological target: T22, FLT3 (Y591_V592 ins VDFREYEYD) (Homo sapiens, UniProt P36888, INS591VDFREYEYD); test: as above; type: biochemical
T22 construct: purchased Reaction Biology Corp. (Kinase HotSpot service)
Description: as §1

FLT3 (ITD)-W51 = biological target: T23, FLT3 (ITD)-W51 (Homo sapiens, UniProt P36888, DUP595-601); test: as above; type: biochemical
T23 construct: purchased Reaction Biology Corp. (Kinase HotSpot service)
Description: as §1

FLT3 (ITD)-NPOS = FLT3 (ITD)-NPOS (Homo sapiens, UniProt P36888, ITD); test: as above; type: biochemical
Description: as §1

CCN1CCN(Cc2cc(C(=O)Nc3ccc4[nH]c(-c5ccc6cn[nH]c6c5)nc4c3)cc(C(F)(F)F)c2)CC1 [8r, N-(2-(1H-Indazol-6-yl)-1H-benzo[d]imidazol-5-yl)-3-((4-ethylpiperazin-1-yl)methyl)-5-(trifluoromethyl)benzamide]
IC50 (TRKC): 1.52 µM
inhibition at 1 µM (TRKC): > 20%
IC50 (c-Kit): 4.57 µM
inhibition at 1 µM (c-Kit; read-out: % Inhibition c-Kit): 19%
IC50 (ABL1): 3.09 µM
inhibition at 1 µM (ABL1; read-out: % Inhibition ABL1): 18.4%
IC50 (CAMKK1): 0.395 µM
inhibition at 1 µM (CAMKK1; read-out: % Inhibition CAMKK1): > 20%
inhibition at 1 µM (CAMKK1; read-out: % Inhibition CAMKK1, 8r at 1 µM single dose): 32.5%
melting point: 265 to 267 °C
inhibition at 1 µM (AKT1): 3.09%
inhibition at 1 µM (BTK): 17.5%
inhibition at 1 µM (ALK): 7.5%
inhibition at 1 µM (c-MER): 7.3%
inhibition at 1 µM (ERK1): 0%
inhibition at 1 µM (FYN): 18%
inhibition at 1 µM (FMS): 0.531%
inhibition at 1 µM (FGFR3): 0%
inhibition at 1 µM (c-Src): 1.94%
inhibition at 1 µM (AXL): 1.88%
inhibition at 1 µM (Aurora A): 7.47%
inhibition at 1 µM (EGFR): 0.274%
inhibition at 1 µM (BRAF (V599E)): 1%
inhibition at 1 µM (AXL (R499C)): 6.64%
inhibition at 1 µM (c-MET): 6.53%
inhibition at 1 µM (FLT3-ITD): 88%
IC50 (FLT3 (R595_E596 ins EY)): 0.0248 µM
inhibition at 1 µM (FLT3 (R595_E596 ins EY); read-out: % Inhibition FLT3 (R595_E596insEY)): 93.9%
IC50 (FLT3 (F594_R595 ins R)): 0.0373 µM
inhibition at 1 µM (FLT3 (F594_R595 ins R); read-out: % Inhibition FLT3 (F594_R595insR)): 92%
IC50 [1]: 0.0495 µM
inhibition at 1 µM ([1]; read-out: % Inhibition FLT3 (Y591_V592insVDFREYEYD)): 90.9%
IC50 (FLT3 (ITD)-W51): 0.0228 µM
inhibition at 1 µM (FLT3 (ITD)-W51; read-out: % Inhibition FLT3 (ITD)-W51): 93.9%
IC50 (FLT3 (ITD)-NPOS): 0.0415 µM
inhibition at 1 µM (FLT3 (ITD)-NPOS): 88%
